From publication PMC11758220, “Identification of a Privileged Scaffold for Inhibition of Sterol Transport Proteins through the Synthesis and Ring Distortion of Diverse, Pseudo-Natural Products” (ACS Central Science, 2025)

Assays:
[1] = molecular target: T1, ORP2 (Homo sapiens, UniProt Q9H1P3); assay: Fluorescence polarisation (FP) competition with NBD-cholesterol, ORP2; assay type: binding; details: for ORP2 (FP) inhibition / inhibition at 10 µM: single dose, Dose = 10 µM; for IC50: mean of three experiments run in technical duplicates
T1 construct: ORP2(49-480); host or cells: E. coli BL21(DE3)
T1 sequence (Q9H1P3 49-480): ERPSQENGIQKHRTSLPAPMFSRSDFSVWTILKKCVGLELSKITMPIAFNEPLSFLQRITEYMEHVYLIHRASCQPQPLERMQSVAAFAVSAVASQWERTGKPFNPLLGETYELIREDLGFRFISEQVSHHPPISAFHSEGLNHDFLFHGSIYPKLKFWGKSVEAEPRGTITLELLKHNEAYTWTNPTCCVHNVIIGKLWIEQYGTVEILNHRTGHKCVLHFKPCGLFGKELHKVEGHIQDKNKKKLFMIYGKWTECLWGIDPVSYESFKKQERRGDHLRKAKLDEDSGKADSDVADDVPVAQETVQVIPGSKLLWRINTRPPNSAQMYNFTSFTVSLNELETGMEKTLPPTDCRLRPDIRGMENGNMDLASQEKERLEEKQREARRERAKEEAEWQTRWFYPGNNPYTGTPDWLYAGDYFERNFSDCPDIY
From the text: Protein expression constructs
Human ASTER domains of Aster-A(359-547), -B(364-552) and -C(318-504) were subcloned into a pGEX-6p-2rbs vector, thus introducing the cloning artifact ‘GPLGS’.3 The pGEX-6P-1-GST-OSBP(377- […]
a gift from James H. Hurley (University of California).4 The pHIS_2His6_Thrombin_STARD4(2-205;C75S) plasmid was a gift from Young Jun Im (Chonnam National University).5 STARD5A was a gift from Nicola Burgess-Brown (Addgene plasmid #42392; http://n2t.net/addgene:42392; […]
Protein expression and purification […]
vectors including an N-terminal PreScission-cleavable glutathione S-transferase (GST)-tag were expressed in Escherichia coli (E. coli) OverExpress C41 in Terrific Broth (TB) medium for 16 h at 18 °C after the induction with 0.1 mM isopropyl β-D-1-thiogalactopyranoside (IPTG). Cells were harvested at 3500 × g for 15 minutes and lysed by sonication in buffer containing 50 mM HEPES pH 7.5, 300 mM NaCl, 10 %v/v glycerol, 5 mM dithiothreitol (DTT), 0.1 %v/v Triton X-100 and protease inhibitor mix HP plus (Serva). The lysate was purified by affinity chromatography on a GSTrap FF column (Cytiva) using an ÄKTA Start (Cytiva) in buffer containing 50 mM HEPES pH 7.5, 300 mM NaCl, 10 %v/v glycerol, 5 mM DTT and 0.01 %v/v Triton X-100. The GST-tag was cleaved overnight on the column at 4 °C. The Aster sterol binding domains were further purified by size-exclusion chromatography (SEC) on a HiLoad 16/600 Superdex 75 pg (Cytiva) in buffer containing 20 mM HEPES pH 7.5, 300 mM NaCl, 10 %v/v […]
STARD5(6-213) harboring an N-terminal His6-Tag were expressed in E. coli BL21(DE3) in Luria-Bertani Broth (LB) medium for approximately 16 h at 18 °C after induction with 0.15 mM IPTG. Cells were harvested at 3500 × g for 15 minutes and lysed by sonication in buffer containing 50 mM HEPES pH 7.5, 150 mM NaCl, 5 %v/v glycerol, 5 mM DTT, 0.1 %v/v Triton X -100 and ethylenediaminetetraacetic acid (EDTA)-free protease inhibitor cocktail (Sigma-Aldrich). The cleared lysate was purified by affinity chromatography on a Ni-NTA Superflow Cartridge (Qiagen) using an ÄKTA Start (Cytiva) in buffer containing 50 mM HEPES pH 7.5, 150 mM NaCl, 5 %v/v glycerol, 5 mM DTT. START domains were eluted by using elution buffer containing 50 mM HEPES pH 7.5, 150 mM NaCl, 5 %v/v glycerol, 5 mM DTT and 500 mM imidazole. Proteins were further purified by SEC on a HiLoad 16/600 Superdex 75 pg (Cytiva) in buffer containing 20 mM HEPES pH 7.5, 150 mM NaCl, 5 %v/v glycerol and 2 mM DTT.
The ORP domain of human OSBP(377-807) in the pGEX-6p-1 vector with an N-terminal PreScission-cleavable GST-tag was expressed in E. coli OverExpress C41 in LB medium for 16 h at 18 °C after induction with 0.1 mM IPTG. Cells were harvested at 3500 × g for 15 minutes and lysed by sonication in buffer containing 20 mM HEPES pH 7.5, 300 mM NaCl, 10 %v/v glycerol, 5 mM DTT, 0.1 %v/v Triton X-100 and EDTA-free protease inhibitor cocktail (Sigma-Aldrich). The cleared lysate was purified by affinity chromatography on a GSTrap HF column (Cytiva) using an ÄKTA Start (Cytiva) in buffer containing 20 mM HEPES pH 7.5, 300 mM NaCl, 10 %v/v glycerol, 5 mM DTT. OSBP(377 -807) was eluted by using elution buffer containing 20 mM HEPES pH 7.5, 300 mM NaCl, 10 %v/v glycerol, 5 mM DTT and 10 mM reduced glutathione. Proteins were further purified by SEC on a HiLoad 16/600 Superdex 75 pg (Cytiva) using an ÄKTA Explorer (Cytiva) in buffer containing 20 mM HEPES pH 7.5, 150 mM NaCl, 10 %v/v glycerol and 2 mM DTT.
The ORP domains of human ORP1(534-950) in pET24b(+) and ORP2(49-480) in the pET24b(+) vector including an N-terminal His6-Tag were expressed in E. coli BL21(DE3) in TB medium for approximately 16 h at 18 °C after induction with 0.1 mM IPTG. Cells were collected at 3500 × g for 15 minutes and lysed by sonification in buffer containing 10 mM Tris-HCl pH 8, 300 mM NaCl, 5 % glycerol, 2 mM DTT, 0.1 % Triton X-100 and EDTA-free protease inhibitor cocktail (Sigma-Aldrich). The cleared […]

[2] = molecular target: T2, STARD4 (Homo sapiens, UniProt Q96DR4, C75S); assay: Differential scanning fluorimetry (DSF), STARD4; assay type: binding; details: for STARD4 (DSF) ΔTm / ΔTm at 10 µM: single dose, Dose = 10 µM; for Kd: apparent Kd, mean of three experiments run in technical duplicates, read-out: STARD4 Kd,app (DSF); for STARD4 (DSF) ΔTmmax: maximal thermal shift
T2 construct: STARD4(2-205; C75S); made in house; host or cells: E. coli BL21(DE3)
T2 sequence (Q96DR4 2-205 C75S): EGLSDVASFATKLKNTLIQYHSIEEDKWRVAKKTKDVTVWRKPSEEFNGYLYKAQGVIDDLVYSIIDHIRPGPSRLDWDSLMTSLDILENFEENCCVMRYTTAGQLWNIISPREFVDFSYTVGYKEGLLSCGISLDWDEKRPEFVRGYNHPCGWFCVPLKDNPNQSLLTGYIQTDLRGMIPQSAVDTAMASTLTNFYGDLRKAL

SMILES	ORP2 (FP) inhibition [1] [%]	STARD4 (DSF) ΔTm [2] [°C]	inhibition at 10 µM [1] [%]	ΔTm at 10 µM [2] [°C]	further results
C[C@]12CC[C@@H](O)C[C@H]1CCc1nc3cc(Cl)c(Cl)cc3nc12 [Compound 7d]	12	-0.111			
C[C@]12CC[C@@H](O)C[C@H]1CCC(=O)c1ccccc1NC2=O [Compound 11a]	6	-0.0281			
Cc1ccc2[nH]c3c(c(=O)c2c1)C[C@@H]1C[C@H](O)CC[C@]31C [Compound 12]			5	-0.0238	
C[C@]12CC[C@@H]3C[C@H]1CC[C@@]21C(=Nc2ccc(F)cc21)O3 [Compound 15d]			25	1.3	
Cc1ccc2c(c1)[C@@]13CC[C@@H]4C[C@@H](CC[C@@]41C)OC3=N2 [Compound 15e]			38	2.1	Kd [2]: 6.18 µM; STARD4 (DSF) ΔTmmax [2]: 2.4 °C
C[C@]12CC[C@@H](O)C[C@H]1CCC(=O)c1cc(Br)ccc1NC2=O [Compound 11b]			2	0.126	
Cc1ccc2[nH]c3c(c2c1)CC[C@@H]1C[C@H](O)CC[C@]31C [Compound 10e]			50.6	0.284	
C[C@]12CC[C@@H](O)C[C@H]1CCc1nc3cc(F)c(F)cc3nc12 [Compound 7c]	9	0.0575			
CC12CCC3CC1CCC21C(=Nc2ccc(N4CCOCC4)cc21)O3 (single isomer, unassigned; (+)) [(+)-19a]	7	0.4			IC50 [1]: > 80 µM; Kd [2]: > 50 µM; STARD4 (DSF) ΔTmmax [2]: 1.1 °C
C[C@]12CC[C@@H]3C[C@H]1CC[C@@]21C(=Nc2ccc(-c4ccccc4)cc21)O3 [Compound 21a]			58	0.8	
C[C@]12CC[C@@H](O)C[C@H]1CCC[C@]21NC(=O)c2ccccc2N1 [Compound 5a]	11	-0.0769	6	-0.124	
CC12CCC3CC1CCC21C(=Nc2ccc(Cl)cc21)O3 (centres unmarked) [Compound 15c]			47	1.5	IC50 [1]: 22.2 µM
COc1ccc2c(c1)C(=O)CC[C@@H]1C[C@H](O)CC[C@]1(C)C(=O)N2 [Compound 11d]			11	-0.0249	
C[C@]12CC[C@@H](O)C[C@H]1CCc1sc(-c3ccc(F)cc3)nc12 [Compound 8e]	25	0.7			
CCCCCN(c1ccc2c(c1)[C@@]13CC[C@@H]4C[C@@H](CC[C@@]41C)OC3=N2)c1ccc2c(c1)[C@@]13CC[C@@H]4C[C@@H](CC[C@@]41C)OC3=N2 [Compound 20b]	2	-0.0184			
C[C@]12CC[C@@H](O)C[C@H]1CCc1c2nc2ccccc2c1-c1ccc(F)cc1 [Compound 2d]			14	-0.177	
C[C@]12CC[C@@H](O)C[C@H]1CCc1c2[nH]c2ccc(F)cc12 [Compound 10d]	42	0.167			
C[C@]12CC[C@@H](O)C[C@H]1CCc1c2[nH]c2ccc(Cl)cc12 [Compound 10c]	32	0.284			
